pIC50: −log10 of the molar value. Structures can show the parent of a compound that is named as a salt.
Legend:
JAK2 tyrosine kinase = molecular target: T1, JAK2 tyrosine kinase (Homo sapiens, UniProt O60674); test: Test 1: inhibitory activity to JAK2 tyrosine kinase (ELISA); type: biochemical; settings: 25 μM ATP in substrate solution, 30° C. for 1 hour, n=2
T1 construct: purchased Carnabioscience Co
Procedure, shortened: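 This is an ELISA read at A450 (HRP anti-phosphotyrosine antibody, TMB) of biotin-peptide phosphorylation captured on streptavidin. Enzyme solution was 0.75 nM JAK2, and the substrate solution was 625 nM peptide with 25 μM ATP in Tris pH 7.5 buffer. The reaction ran 1 h at 30 °C with compounds in duplicate, and IC50 was fitted non-linearly.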

JAK3 tyrosine kinase = molecular target: T2, JAK3 tyrosine kinase (Homo sapiens, UniProt P52333); test: Test 1: inhibitory activity to JAK3 tyrosine kinase (ELISA); type: biochemical; settings: 25 μM ATP in substrate solution, 30° C. for 1 hour, n=2
T2 construct: purchased Carnabioscience Co
T2 sequence (P52333 1-1124): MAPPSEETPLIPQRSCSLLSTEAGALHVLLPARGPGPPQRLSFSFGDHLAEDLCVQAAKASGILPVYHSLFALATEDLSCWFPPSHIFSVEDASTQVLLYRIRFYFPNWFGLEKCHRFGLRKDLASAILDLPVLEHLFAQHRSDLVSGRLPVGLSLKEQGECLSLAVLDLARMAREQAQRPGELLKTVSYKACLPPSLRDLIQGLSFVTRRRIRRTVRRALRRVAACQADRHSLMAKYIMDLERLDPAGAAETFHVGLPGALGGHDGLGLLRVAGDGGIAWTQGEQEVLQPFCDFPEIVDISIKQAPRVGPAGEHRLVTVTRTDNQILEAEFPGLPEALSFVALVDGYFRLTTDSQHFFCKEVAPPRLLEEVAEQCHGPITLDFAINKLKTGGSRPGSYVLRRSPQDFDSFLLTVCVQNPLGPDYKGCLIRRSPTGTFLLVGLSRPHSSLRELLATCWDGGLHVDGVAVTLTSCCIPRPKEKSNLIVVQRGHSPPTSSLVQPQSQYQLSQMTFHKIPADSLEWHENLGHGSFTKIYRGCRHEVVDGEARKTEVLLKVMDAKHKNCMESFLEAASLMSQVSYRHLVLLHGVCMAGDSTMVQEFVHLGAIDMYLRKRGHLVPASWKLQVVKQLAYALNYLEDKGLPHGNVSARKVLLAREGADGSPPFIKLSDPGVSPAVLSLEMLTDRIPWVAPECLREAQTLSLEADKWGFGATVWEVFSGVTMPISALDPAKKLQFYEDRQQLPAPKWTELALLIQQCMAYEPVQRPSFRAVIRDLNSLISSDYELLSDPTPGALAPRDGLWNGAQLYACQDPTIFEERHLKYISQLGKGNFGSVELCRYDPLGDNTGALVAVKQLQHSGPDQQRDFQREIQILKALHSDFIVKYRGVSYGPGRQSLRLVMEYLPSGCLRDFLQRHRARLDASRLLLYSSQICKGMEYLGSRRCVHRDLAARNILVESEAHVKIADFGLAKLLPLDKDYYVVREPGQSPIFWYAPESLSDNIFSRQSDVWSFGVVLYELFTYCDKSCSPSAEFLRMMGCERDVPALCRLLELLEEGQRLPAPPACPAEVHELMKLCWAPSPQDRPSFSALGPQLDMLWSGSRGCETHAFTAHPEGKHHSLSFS
Procedure, shortened: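 ELISA of JAK3 kinase activity with absorbance read at 450 nm. Compounds were tested from DMSO dilution series at 100-fold the measurement concentrations (1000–0.01 μM), diluted up to 20 times in assay buffer, against a DMSO negative control. IC50 was estimated by non-linear regression of absorbance.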

T1 sequence (O60674 whole entry): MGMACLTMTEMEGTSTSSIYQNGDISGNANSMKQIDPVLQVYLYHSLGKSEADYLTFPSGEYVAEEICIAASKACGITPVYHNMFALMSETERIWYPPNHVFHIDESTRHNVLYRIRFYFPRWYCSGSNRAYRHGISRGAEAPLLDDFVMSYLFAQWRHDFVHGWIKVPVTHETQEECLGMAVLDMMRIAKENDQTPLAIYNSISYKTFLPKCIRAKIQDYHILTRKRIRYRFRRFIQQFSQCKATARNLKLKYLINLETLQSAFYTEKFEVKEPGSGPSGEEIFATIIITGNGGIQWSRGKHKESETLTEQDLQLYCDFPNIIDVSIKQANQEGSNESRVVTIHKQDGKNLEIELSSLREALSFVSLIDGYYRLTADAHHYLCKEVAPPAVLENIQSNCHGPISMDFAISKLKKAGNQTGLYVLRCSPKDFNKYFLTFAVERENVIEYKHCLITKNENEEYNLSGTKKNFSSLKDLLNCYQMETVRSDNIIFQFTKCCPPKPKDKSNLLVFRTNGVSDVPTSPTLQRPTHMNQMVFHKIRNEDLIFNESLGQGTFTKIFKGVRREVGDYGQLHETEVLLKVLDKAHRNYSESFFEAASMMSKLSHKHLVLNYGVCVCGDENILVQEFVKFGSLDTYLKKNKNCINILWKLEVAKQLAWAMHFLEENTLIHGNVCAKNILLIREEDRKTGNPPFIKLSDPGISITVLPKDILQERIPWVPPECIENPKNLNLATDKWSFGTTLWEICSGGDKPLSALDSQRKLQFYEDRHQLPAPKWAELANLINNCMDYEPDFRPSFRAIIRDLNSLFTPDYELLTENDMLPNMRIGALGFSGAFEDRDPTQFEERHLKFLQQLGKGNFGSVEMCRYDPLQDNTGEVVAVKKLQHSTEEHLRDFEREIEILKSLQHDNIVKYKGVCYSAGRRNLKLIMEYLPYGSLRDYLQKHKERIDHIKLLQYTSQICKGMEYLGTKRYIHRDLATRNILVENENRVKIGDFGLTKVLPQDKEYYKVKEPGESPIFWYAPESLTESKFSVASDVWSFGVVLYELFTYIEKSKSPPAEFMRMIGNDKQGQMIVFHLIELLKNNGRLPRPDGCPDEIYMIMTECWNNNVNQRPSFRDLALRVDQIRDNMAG

Row | SMILES | pIC50 (JAK2 tyrosine kinase) | pIC50 (JAK3 tyrosine kinase)
1 | C[C@H](Nc1cc(-c2cnn(C3CC3)c2)cc(Nc2cnccn2)n1)c1ccc(F)cc1 [Example 218, (S)-4-(1-Cyclopropyl-1H-pyrazol-4-yl)-N^2-[1-(4-fluorophenyl)ethyl]-N^6-(pyrazin-2-yl)pyridine-2,6-diamine] | 8.66 | 7.07
2 | C[C@H](Nc1cc(-c2cccnc2)cc(Nc2cnccn2)n1)c1ccc(F)cc1 [Example 5, (S)—N^2′-[1-(4-Fluorophenyl)ethyl]-N^6′-(pyrazin-2-yl)-3,4′-bipyridine-2′,6′-diamine hydrochloride] | 9.21 | 7.21
3 | C[C@H](Nc1cc(N2CC(O)(C3CC3)C2)cc(Nc2cnccn2)n1)c1ccc(F)cc1 [Example 203, (S)-3-Cyclopropyl-1-{2-[1-(4-fluorophenyl)ethylamino]-6-(pyrazin-2-ylamino)pyridin-4-yl}azetidin-3-ol hydrochloride] | 8.35 | 6.92
4 | C[C@H](Nc1nc(NCCN(C)C)cc(Nc2cnccn2)n1)c1ccc(F)cc1 [Example 62, (S)—N^4-[2-(Dimethylamino)ethyl]-N^2-[1-(4-fluorophenyl)ethyl]-N^6-(pyrazin-2-yl)pyrimidine-2,4,6-triamine dihydrochloride] | 8.66 | 7.19
5 | Cn1cc(-c2cc(Nc3cnccn3)nc(NC(CO)c3ccc(F)cc3)c2)cn1 (centres unmarked) [Example 179, 2-(4-Fluorophenyl)-2-[4-(1-methyl-1H-pyrazol-4-yl)-6-(pyrazin-2-ylamino)pyridin-2-ylamino]ethanol] | 8.59 | 6.48
6 | C[C@H](Nc1nc(Nc2cnccn2)ccc1C(=O)N1CCOCC1)c1ccc(F)cc1 [Example 188, (S)-{2-[1-(4-Fluorophenyl)ethylamino]-6-(pyrazin-2-ylamino)pyridin-3-yl}(morpholino)methanone dihydrochloride] | 8.43 | 6.92
7 | C[C@H](Nc1nc(Nc2cnccn2)cc(-c2ccc(C#N)nc2)n1)c1ccc(F)cc1 [Example 55, (S)-5-{2-[1-(4-Fluorophenyl)ethylamino]-6-(pyrazin-2-ylamino)pyrimidin-4-yl}picolinonitrile] | 8.70 | 6.72
8 | CC(=O)NCCNc1cc(Nc2cnccn2)nc(N[C@@H](C)c2ccc(F)cc2)n1 [Example 78, (S)—N-(2-{2-[1-(4-Fluorophenyl)ethylamino]-6-(pyrazin-2-ylamino)pyrimidin-4-ylamino}ethyl) acetamide hydrochloride] | 8.85 | 7.46
9 | C[C@H](Nc1nc(Nc2cnccn2)cc(N2CCN(S(C)(=O)=O)CC2)n1)c1ccc(Cl)cc1 [Example 100, (S)—N^2-[1-(4-Chlorophenyl)ethyl]-6-[4-(methylsulfonyl)piperazin-1-yl]-N^4-(pyrazin-2-yl)pyrimidine-2,4-diamine hydrochloride] | 9.28 | 7.33
10 | C[C@H](Nc1cc(N2CC(N3CCC(O)CC3)C2)cc(Nc2cnccn2)n1)c1ccc(F)cc1 [Example 234, (S)-1-(1-{2-[1-(4-Fluorophenyl)ethylamino]-6-(pyrazin-2-ylamino)pyridin-4-yl}azetidin-3-yl)piperidin-4-ol] | 8.27 | 6.77
11 | C[C@H](Nc1cc(NC(N)=O)cc(Nc2cnccn2)n1)c1ccc(F)cc1 [Example 210, (S)-1-[2-[1-(4-Fluorophenyl)ethylamino]-6-(pyrazin-2-ylamino)pyridin-4-yl]urea] | 8.49 | 6.74
12 | C[C@H](Nc1nc(Nc2cnccn2)ccc1C(=O)NCC1CC1)c1ccc(F)cc1 [Example 189, (S)—N-(Cyclopropylmethyl)-2-[1-(4-fluorophenyl)ethylamino]-6-(pyrazin-2-ylamino)nicotinamide] | 7.92 | 5.82
13 | C[C@H](Nc1cc(OCCO)cc(Nc2cnccn2)n1)c1ccc(F)cc1 [Example 12, (S)-2-{2-[1-(4-Fluorophenyl)ethylamino]-6-(pyrazin-2-ylamino)pyridin-4-yloxy}ethanol hydrochloride] | 9.04 | 7.10
14 | C[C@H](Nc1nc(Nc2cnccn2)cc(N[C@H](CO)Cc2ccccc2)n1)c1ccc(F)cc1 [Example 87, (S)-2-{2-[(S)-1-(4-Fluorophenyl)ethylamino]-6-(pyrazin-2-ylamino)pyrimidin-4-ylamino}-3-phenylpropan-1-ol] | 7.85 | 6.35
15 | C[C@H](Nc1cc(-c2ccc(F)cc2)cc(Nc2cnccn2)n1)c1ccc(F)cc1 [Example 120, (S)-4-(4-Fluorophenyl)-N^2-[1-(4-fluorophenyl)ethyl]-N^6-(pyrazin-2-yl)pyridine-2,6-diamine hydrochloride] | 7.64 | 5.77

Further lines, results first:

Row | pIC50 (JAK2 tyrosine kinase) | pIC50 (JAK3 tyrosine kinase) | SMILES
16 | 9.19 | 7.46 | C[C@H](Nc1nc(Nc2cnccn2)cc(N2CC(C(=O)N3CCOCC3)C2)n1)c1ccc(F)cc1 [Example 196, (S)-(1-{2-[1-(4-Fluorophenyl)ethylamino]-6-(pyrazin-2-ylamino)pyrimidin-4-yl}azetidin-3-yl) (morpholino) methanone]
17 | 9.09 | 7.44 | C[C@H](Nc1nc(Nc2cnccn2)cc(-c2cn[nH]c2)n1)c1ccc(F)cc1 [Example 11, (S)—N^2-[1-(4-Fluorophenyl)ethyl]-N^4-(pyrazin-2-yl)-6-(1H-pyrazol-4-yl)pyrimidine-2,4-diamine hydrochloride]
18 | 8.41 | 6.74 | C[C@H](Nc1nc(Nc2cnccn2)cc(N2CC(CNC(=O)OC(C)(C)C)C2)n1)c1ccc(F)cc1 [Example 229, t-Butyl (S)-(1-{2-[1-(4-fluorophenyl)ethylamino]-6-(pyrazin-2-ylamino)pyrimidin-4-yl}azetidin-3-yl)methyl carbamate]
19 | 8.82 | 7.19 | C[C@H](Nc1nc(Nc2cnccn2)cc(N2CCC[C@@H]2CO)n1)c1ccc(F)cc1 [Example 70, ((R)-1-{2-[(S)-1-(4-Fluorophenyl)ethylamino]-6-(pyrazin-2-ylamino)pyrimidin-4-yl}pyrrolidin-2-yl)methanol hydrochloride]
20 | 8.52 | 6.89 | C[C@H](Nc1nc(Nc2cnccn2)cc(N2CCCNC2=O)n1)c1ccc(F)cc1 [Example 18, (S)-1-{2-[1-(4-Fluorophenyl)ethylamino]-6-(pyrazin-2-ylamino)pyrimidin-4-yl}tetrahydropyrimidin-2(1H)-one]
21 | 8.74 | 7.23 | COC1CN(c2cc(Nc3cnccn3)nc(N[C@@H](C)c3ccc(F)cc3)n2)C1 [Example 183, (S)—N^2-[1-(4-Fluorophenyl)ethyl]-6-(3-methoxyazetidin-1-yl)-N^4-(pyrazin-2-yl)pyrimidine-2,4-diamine hydrochloride]
22 | 9.02 | 7.51 | C[C@H](Nc1nc(Nc2cnccn2)cc(N2CC(O)C2)n1)c1ccc(F)cc1 [Example 72, (S)-1-{2-[1-(4-Fluorophenyl)ethylamino]-6-(pyrazin-2-ylamino)pyrimidin-4-yl}azetidin-3-ol hydrochloride]
23 | 9.00 | 7.09 | C[C@H](Nc1nc(Nc2cnccn2)cc(N2CC(C#N)C2)n1)c1ccc(F)cc1 [Example 178, (S)-1-{2-[1-(4-Fluorophenyl)ethylamino]-6-(pyrazin-2-ylamino)pyrimidin-4-yl}azetidine-3-carbonitrile]
24 | 8.59 | 7.23 | C[C@H](Nc1nc(Nc2cnccn2)cc(N2CCCC2)n1)c1ccc(F)cc1 [Example 19, (S)—N^2-[1-(4-Fluorophenyl)ethyl]-N^4-(pyrazin-2-yl)-6-(pyrrolidin-1-yl)pyrimidine-2,4-diamine]
25 | 8.05 | 5.64 | C[C@H](Nc1nc(Nc2cnccn2)cc(N2CCC2=O)n1)c1ccc(F)cc1 [Example 45, (S)-1-{2-[1-(4-Fluorophenyl)ethylamino]-6-(pyrazin-2-ylamino)pyrimidin-4-yl}azetidin-2-one]

From patent publication US8586591B2, “Aminopyrazine derivative and medicine” (Nippon Shinyaku Co., Ltd., priority 2009, dated 2013)
